16 compounds from patent US20230022157A1 (Achillion Pharmaceuticals, Inc., priority 2018, published 2023) can be followed below.

pIC50: −log10 of the molar value. A value given as a limit tells only on which side of the number the result lay.

In one experiment the target is T1, Human Factor D (Homo sapiens, UniProt P00746).
T1 construct: purified from human serum; purchased Complement Technology, Inc; host or cells: human serum (natural protein, not recombinant)
T1 sequence (P00746 26-253): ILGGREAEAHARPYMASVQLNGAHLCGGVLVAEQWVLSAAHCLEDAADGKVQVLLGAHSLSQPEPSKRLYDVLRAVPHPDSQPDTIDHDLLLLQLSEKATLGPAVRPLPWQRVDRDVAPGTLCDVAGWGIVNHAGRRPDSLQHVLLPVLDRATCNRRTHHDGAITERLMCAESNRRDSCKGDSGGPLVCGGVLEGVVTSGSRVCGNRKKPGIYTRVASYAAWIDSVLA
Description: Human Factor D Assay. Format: biochemical. Conditions: Human Factor D 80 nM, substrate Z-L-Lys-SBzl, assay of Example 3; read-out: IC50 (Stars). An outline of the steps:
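Serum-purified human factor D (80 nM final) preincubated 5 min at room temperature with test compound in 50 mM Tris, 1M NaCl, pH 7.5. Z-L-Lys-SBzl substrate and DTNB then added, each at 100 μM final. IC50 from nonlinear regression of reaction rate against compound concentration.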
As to `CC(=O)c1nn(CC(=O)N2[C@H](C(=O)NCCc3ccc(Cl)cc3Cl)C[C@@]3(C)C[C@@H]23)c2c(C)cc(-c3cnc(C)nc3)cc12` [Compound 5, (1R,3S,5R)-2-(2-(3-Acetyl-7-methyl-5-(2-methylpyrimidin-5-yl)-1H-indazol-1-yl)acetyl)-N-(2,4-dichlorophenethyl)-5-methyl-2-azabicyclo[3.1.0]hexane-3-carboxamide], the pIC50 is above 6.00.

`CC(=O)c1nn(CC(=O)N2[C@H](C(=O)NCCc3ccncc3)C[C@@]3(C)C[C@@H]23)c2c(C)cc(-c3cnc(C)nc3)cc12` [Compound 8, (1R,3S,5R)-2-(2-(3-Acetyl-7-methyl-5-(2-methylpyrimidin-5-yl)-1H-indazol-1-yl)acetyl)-5-methyl-N-(2-(pyridin-4-yl)ethyl)-2-azabicyclo[3.1.0]hexane-3-carboxamide]: the pIC50 is 5.00 to 6.00.

Still in this experiment, the particulars now being: Human Factor D 80 nM, substrate Z-L-Lys-SBzl; Table 2; read-out: IC50 (Stars).
On to `CC(=O)c1nn(CC(=O)N2[C@H](C(=O)NC3CCCC4(C3)OCCO4)C[C@@]3(C)C[C@@H]23)c2c(C)cc(-c3cnc(C)nc3)cc12` (stereo partly drawn) [Compound 137, (1R,3S,5R)-2-{2-[3-acetyl-7-methyl-5-(2-methylpyrimidin-5-yl)indazol-1-yl]acetyl}-N-{1,4-dioxaspiro[4.5]decan-7-yl}-5-methyl-2-azabicyclo[3.1.0]hexane-3-carboxamide], for which the negative logarithm of the IC50 (pIC50) is above 6.00.

As for `Cc1cc(F)c(Br)nc1NC(=O)[C@@H]1[C@@H]2C[C@@H]2CN1C(=O)Cn1nc(C(N)=O)c2cc(-c3cnc(CO)nc3)nc(C)c21` [Compound 168, 1-(2-((1R,2S,5S)-2-((6-bromo-5-fluoro-3-methylpyridin-2-yl)carbamoyl)-3-azabicyclo[3.1.0]hexan-3-yl)-2-oxoethyl)-5-(2-(hydroxymethyl)pyrimidin-5-yl)-7-methyl-1H-pyrazolo[3,4-c]pyridine-3-carboxamide], the pIC50 is above 6.00.

For the compound `CC(=O)c1cn(CC(=O)N2[C@H](C(=O)Nc3nc(Br)ccc3C)C[C@@]3(C)C[C@@H]23)c2c(C)cc(-c3cnc4cc(C5CC5)nn4c3)cc12` [Compound 195, (1R,3S,5R)-2-(2-(3-acetyl-5-(2-cyclopropylpyrazolo[1,5-a]pyrimidin-6-yl)-7-methyl-1H-indol-1-yl)acetyl)-N-(6-bromo-3-methylpyridin-2-yl)-5-methyl-2-azabicyclo[3.1.0]hexane-3-carboxamide], the pIC50 was above 6.00.

Regarding `CC(=O)c1nn(CC(=O)N2[C@H](C(=O)Nc3nc(Br)ccc3C)C[C@@]3(C)C[C@@H]23)c2c(C)cc(-c3ccc(CO)nc3)cc12` [Compound 82, (1R,3S,5R)-2-(2-(3-acetyl-5-(6-(hydroxymethyl)pyridin-3-yl)-7-methyl-1H-indazol-1-yl)acetyl)-N-(6-bromo-3-methylpyridin-2-yl)-5-methyl-2-azabicyclo[3.1.0]hexane-3-carboxamide], the pIC50 was above 6.00.

Consider `CC(=O)c1nn(CC(=O)N2[C@H](C(=O)Nc3nc(Br)ccc3C)C[C@@]3(C)C[C@@H]23)c2c(C)cc(-c3cnc(C#N)nc3)cc12` [Compound 57, (1R,3S,5R)-2-(2-(3-acetyl-5-(2-cyanopyrimidin-5-yl)-7-methyl-1H-indazol-1-yl)acetyl)-N-(6-bromo-3-methylpyridin-2-yl)-5-methyl-2-azabicyclo[3.1.0]hexane-3-carboxamide], for which the pIC50 is above 6.00.

As for `CC(=O)c1nn(CC(=O)N2[C@H](C(=O)N[C@H](CO)Cc3ccccc3)C[C@@]3(C)C[C@@H]23)c2c(C)cc(-c3cnc(C)nc3)cc12` [Compound 146, (1R,3S,5R)-2-{2-[3-acetyl-7-methyl-5-(2-methylpyrimidin-5-yl)indazol-1-yl]acetyl}-N-[(2S)-1-hydroxy-3-phenylpropan-2-yl]-5-methyl-2-azabicyclo[3.1.0]hexane-3-carboxamide], the pIC50 was above 6.00.

On to `COC(=O)c1ncc(-c2cc(C)c3c(c2)c(C(C)=O)nn3CC(=O)N2[C@H](C(=O)Nc3cncc(Br)n3)C[C@@]3(C)C[C@@H]23)cn1` [Compound 42, Methyl 5-(3-acetyl-1-(2-((1R,3S,5R)-3-((6-bromopyrazin-2-yl)carbamoyl)-5-methyl-2-azabicyclo[3.1.0]hexan-2-yl)-2-oxoethyl)-7-methyl-1H-indazol-5-yl)pyrimidine-2-carboxylate], for which the pIC50 is above 6.00.

On to `CC(=O)c1nn(CC(=O)N2[C@H]3CC[C@H](C3)[C@H]2C(=O)Nc2nc(Br)ccc2C)c2c(C)cc(-c3cnc(CO)nc3)cc12` [Compound 100, (1S,3S,4R)-2-(2-(3-acetyl-5-(2-(hydroxymethyl)pyrimidin-5-yl)-7-methyl-1H-indazol-1-yl)acetyl)-N-(6-bromo-3-methylpyridin-2-yl)-2-azabicyclo[2.2.1]heptane-3-carboxamide], for which the negative logarithm of the IC50 (pIC50) was above 6.00.

With `CCC(Cc1ccccc1)NC(=O)[C@@H]1C[C@@]2(C)C[C@H]2N1C(=O)Cn1nc(C(C)=O)c2cc(-c3cnc(C)nc3)cc(C)c21` (stereo partly drawn) [Compound 173, (1R,3S,5R)-2-{2-[3-acetyl-7-methyl-5-(2-methylpyrimidin-5-yl)indazol-1-yl]acetyl}-5-methyl-N-(1-phenylbutan-2-yl)-2-azabicyclo[3.1.0]hexane-3-carboxamide], the pIC50 is above 6.00.

Turning to `CC(=O)c1cn(CC(=O)N2[C@H](C(=O)Nc3nc(Br)c(F)cc3C)C[C@@]3(C)C[C@@H]23)c2c(C)cc(-c3cnc4cc(C)nn4c3)cc12` [Compound 209, (1R,3S,5R)-2-(2-(3-acetyl-7-methyl-5-(2-methylpyrazolo[1,5-a]pyrimidin-6-yl)-1H-indol-1-yl)acetyl)-N-(6-bromo-5-fluoro-3-methylpyridin-2-yl)-5-methyl-2-azabicyclo[3.1.0]hexane-3-carboxamide], the pIC50 is above 6.00.

In the case of `CC(=O)c1cn(CC(=O)N2[C@H](C(=O)Nc3nc(Br)ccc3C)C[C@@]3(C)C[C@@H]23)c2c(C)c(F)c(-c3cnc(C)nc3)cc12` [Compound 240, (1R,3S,5R)-2-(2-(3-acetyl-6-fluoro-7-methyl-5-(2-methylpyrimidin-5-yl)-1H-indol-1-yl)acetyl)-N-(6-bromo-3-methylpyridin-2-yl)-5-methyl-2-azabicyclo[3.1.0]hexane-3-carboxamide], the pIC50 was above 6.00.

For the compound `CC(=O)c1cn(CC(=O)N2[C@H](C(=O)Nc3nc(C(F)(F)F)ccc3C)C[C@@]3(C)C[C@@H]23)c2c(C)cc(-c3cnc4cc(CO)nn4c3)cc12` [Compound 226, (1R,3S,5R)-2-(2-(3-acetyl-5-(2-(hydroxymethyl)pyrazolo[1,5-a]pyrimidin-6-yl)-7-methyl-1H-indol-1-yl)acetyl)-5-methyl-N-(3-methyl-6-(trifluoromethyl)pyridin-2-yl)-2-azabicyclo[3.1.0]hexane-3-carboxamide], the pIC50 is above 6.00.

`CC(=O)c1cn(CC(=O)N2[C@H](C(=O)Nc3nc(Br)ccc3Cl)C[C@@]3(C)C[C@@H]23)c2c(C)cc(-c3cnc(CO)nc3)cc12` [Compound 84, (1R,3S,5R)-2-(2-(3-acetyl-5-(2-(hydroxymethyl)pyrimidin-5-yl)-7-methyl-1H-indol-1-yl)acetyl)-N-(6-bromo-3-chloropyridin-2-yl)-5-methyl-2-azabicyclo[3.1.0]hexane-3-carboxamide]: the pIC50 was above 6.00.

`CC(=O)c1nn(CCN2C[C@H](F)C[C@H]2C(=O)Nc2cccc(Br)n2)c2ccc(-c3cnc(C)nc3)cc12` [Compound 139, (2S,4R)-1-(2-(3-acetyl-5-(2-methylpyrimidin-5-yl)-1H-indazol-1-yl)ethyl)-N-(6-bromopyridin-2-yl)-4-fluoropyrrolidine-2-carboxamide]: the pIC50 was below 5.00.

As a reminder, the pIC50 is the negative decadic logarithm of the IC50, by convention in mol/L.
